Measurements taken from patent US7847058B2, “Method of modulating cell survival, differentiation and/or synaptic plasticity” (priority 2003, dated 2010).
Entries after “also recorded” stand apart in the source; their conditions may differ.

How the values were obtained:
[1] = test system: NCAM-expressing PC12-E2 cells; experiment: Neurite outgrowth of PC12-E2 cells grown on a confluent monolayer of NCAM-140- or vector-transfected L929 fibroblasts; assay type: cell-based; conditions: co-culture 24 h; for NCAM-induced neurite outgrowth of PC12-E2 cells grown on NCAM-140-transfected (LBN) fibroblasts: Ig3 wt, Ig3mut1, Ig3mut2 at 500 μg ml^−1
Description: The NCAM-expressing pheochromocytoma PC12-E2 cell line (Wu and Bradshaw, 1995) was a gift from Dr. Klaus Seedorf, Hagedorn Research Institute, Denmark. The cells were grown in Dulbecco's Modified Eagle's Medium (DMEM) supplemented with 5% v/v fetal calf serum (FCS) and 10% v/v horse serum (HS), 100 U ml^−1 penicillin, 100 μg ml^−1 streptomycin (all from Gibco BRL) at 37° C. in a humidified atmosphere containing 5% CO2.
The fibroblastoid mouse cell line, L929 (European Cell Culture Collection), was stably transfected with the eukaryotic expression vector pHβ-Apr-1-neo (Gunning et al., 1987) containing a full-length cDNA encoding human 140 kDa NCAM-B or the vector alone. […] The cells were routinely grown at 37° C., 5% CO2 in DMEM supplemented with 10% v/v FCS, 100 U ml^−1 penicillin, and 100 μg ml^−1 streptomycin. For analysis of neurite outgrowth, PC12-E2 cells (8,000 cells per well) were seeded on top of a confluent monolayer of transfected fibroblastoid L929 cells in four-well LabTek Tissue Culture Chamber Slides (NUNC). The cells were grown for 24 h in DMEM supplemented with 1% v/v HS, before analysis.
(§1) Ig3 wt, Ig3mut1, and Ig3mut2 were tested at a concentration of 500 μg ml^−1.
To evaluate the length of processes of PC12-E2 cells, the co-cultures were fixed in 4% w/v paraformaldehyde for 25 min. After washing in PBS, cells were blocked with 10% v/v goat serum (DAKO) for 30 min and subsequently incubated for 1 h at room temperature with a mouse monoclonal anti-Thy-1 antibody (Caltag Laboratories) (1:100 in PBS containing 10% v/v goat serum). After washing, cells were incubated for 1 h at room temperature with Alexa-Fluor 568™ goat anti-mouse IgG (Molecular Probes) (1:1000 in PBS containing 10% goat serum). All washes were performed for 10 min in PBS, and repeated three times.
(§2) The total neurite length per cell was analyzed using the software ProcessLength (Rønn et al., 2000). Five independent experiments with the Ig3 module, its mutants, and the individual peptides were performed. In each experiment neurites from 200-300 cells were analyzed. In order to compare results of individual experiments and due to the inherently high variability of cell experiments, the data were normalized setting the difference between the average neurite length of PC12-E2 cells grown on NCAM-140-transfected and vector-transfected fibroblasts to 100%. Statistical evaluations were performed using a two-sided Student's t-test.

[2] = test system: NCAM-mediated cell aggregation; conditions: Soroka et al., 2002; cited from earlier work
[3] = test system: cerebellar granule neurons (CGN); experiment: Neurite outgrowth of CGN in co-culture with fibroblasts with (LBN) or without (LVN) NCAM expression; assay type: cell-based, rat; conditions: for NCAM-dependent neurite outgrowth of CGN in co-cultures of CGN and LBN-cells: fibroblasts with NCAM expression (LBN); for NCAM-independent neurite outgrowth of CGN in both cultures: single-neuron primary culture 24 h and co-culture with fibroblasts
Description: (§3) Cerebellar granule neurons (CGN) were prepared from Wistar rat pups of postnatal day 3. Cerebellar tissue was dissected in modified Krebs-Ringer solution kept on ice, and treated as described for the hippocampal neurons above. All cell cultures were incubated at 37° C. in a humidified atmosphere containing 5% CO2. All animals were handled in accordance with the national guidelines for animal welfare. Primary cultures of CGN were plated at a density of 100,000 cells/cm^2 on poly-L-lysine coated 8-well permanox slides in Neurobasal-A medium (Gibco, BRL) supplemented with 2% (v/v) B27, 0.5% (v/v) glutamax, 100 U/ml penicillin, 100 μg/ml streptomycin and KCl, making the final concentration of KCl in the medium 40 mM. 24 hours after plating, cytosine-β-D-arabinofuranoside (Ara-C; Sigma-Aldrich) was added to a final concentration of 10 μM to avoid proliferation of glial cells, after which the neurons were allowed to differentiate for further six days at 37° C.
as §1
(§4) To evaluate the length of neurites of CGN, the neurons were fixed after 24 hours in culture with 4% (v/v) formaldehyde for 20 minutes and thereafter immunostained using primary rabbit antibodies against GAP-43 and Alexa Fluor secondary goat anti-rabbit antibodies. Images of at least 200 neurons for each group in each individual experiment were obtained systematically by using computer assisted fluorescence microscopy
as §2

[4] = test system: cerebellar granule neurons (CGN); experiment: Neurite outgrowth of CGN grown as single neurons in primary culture; assay type: cell-based, rat; conditions: 24 h, different concentrations of the peptide in growth media
Description: as §3, §4, §2

[5] = test system: cerebellar granule neurons (CGN); experiment: Neurite outgrowth of CGN in co-culture with fibroblasts with (LBN) or without (LVN) NCAM expression; assay type: cell-based, rat; conditions: co-cultures of PC12-E2 or CGN cells with fibroblasts expressing NCAM; cell type not specified
[6] = Dynamic light scattering (DLS) of recombinant proteins in solution; assay type: physicochemical; conditions: deglycosylated protein, 4 mg ml^−1, PBS pH 7.4, 18° C.
Description: Measurements were performed using a DynaPro-MS/X instrument (Protein Solutions) at 18° C. The deglycosylated preparations of Ig1-2-3 (4 mg ml^−1), Ig1-2-3mut (4 mg ml^−1) and Ig3 (10 mg ml^−1) in PBS pH 7.4 were used to determine the molecular weight of the recombinant proteins in solution.

GEISVGESKFFL (H-GEISVGESKFFL-NH2) [P1-B, covers the B β-strand of Ig1, represents the Ig1-to-Ig2 contact]
NCAM-induced neurite outgrowth of PC12-E2 cells grown on NCAM-140-transfected (LBN) fibroblasts [1]: inhibitory effects comparable to the effect of Ig3 wt; also recorded: inhibited

GRILARGEINFK (rat NCAM Ig2 fragment amino acid residues 172-182) [P2 peptide]
effect on cell aggregation [2]: inhibitory effect

KHIFSDDSSELTIRNVDKNDE (H-KHIFSDDSSELTIRNVDKNDE-NH2) [P3-DE, covers D and E β-strands and E-F loop of the Ig3 module]
NCAM-induced neurite outgrowth of PC12-E2 cells grown on NCAM-140-transfected (LBN) fibroblasts [1]: inhibitory effects comparable to the effect of Ig3 wt; also recorded: inhibited

TLVADADGFPEP (H-TLVADADGFPEP-NH2) [P3-B, control peptide covering the B β-strand and B-C loop of the Ig3 module, reference compound]
NCAM-induced neurite outgrowth of PC12-E2 cells grown on NCAM-140-transfected (LBN) fibroblasts [1]: not active

QEFKEGEDAVIV (H-QEFKEGEDAVIV-NH2) [P2-A′B, represents the Ig2-to-Ig2 contact]
NCAM-dependent neurite outgrowth of CGN in co-cultures of CGN and LBN-cells [3]: inhibits; also recorded: capable modulating
NCAM-independent neurite outgrowth of CGN in both cultures [3]: does not affect
neurite outgrowth (differentiation) of single CGN in primary culture [4]: did not stimulate

DVRRGIKKTD (H-DVRRGIKKTD-NH2) [P2-CD, represents the Ig2-to-Ig3 contact, Ig2 module]
neurite outgrowth (differentiation) of single CGN in primary culture [4]: very capable stimulators
NCAM-stimulated neurite outgrowth in co-cultures [5]: did not affect

SIHLKVFAK (H-SIHLKVFAK-NH2) [P3-G, C-terminal part of the G β-strand of Ig3]
NCAM-induced neurite outgrowth of PC12-E2 cells grown on NCAM-140-transfected (LBN) fibroblasts [1]: inhibitory effects comparable to the effect of Ig3 wt; also recorded: inhibited
neurite outgrowth (differentiation) of single CGN in primary culture [4]: very capable stimulators
NCAM-stimulated neurite outgrowth in co-cultures [5]: did not affect

AFSPNGEKLSPNQ (H-AFSPNGEKLSPNQ-NH2) [P1-CD, represents the Ig1-to-Ig3 contact]
NCAM-dependent neurite outgrowth of CGN in co-cultures of CGN and LBN-cells [3]: inhibits; also recorded: capable modulating
NCAM-independent neurite outgrowth of CGN in both cultures [3]: does not affect
neurite outgrowth (differentiation) of single CGN in primary culture [4]: did not stimulate

QIRGIKKTD (H-QIRGIKKTD-NH2) [P2-EF, represents the Ig2-to-Ig3 contact, Ig2 module]
neurite outgrowth (differentiation) of single CGN in primary culture [4]: very capable stimulators
NCAM-stimulated neurite outgrowth in co-cultures [5]: did not affect

B1: Ig1-2-3: recombinant Ig1-2-3 fragment of rat NCAM, residues 1-289 (protein)
chain: RVLQVDIVPSQGEISVGESKFFLCQVAGDAKDKDISWFSPNGEKLSPNQQRISVVWNDDDSSTLTIYNANIDDAGIYKCVVTAEDGTQSEATVNVKIFQKLMFKNAPTPQEFKEGEDAVIVCDVVSSLPPTIIWKHKGRDVILKKDVRFIVLSNNYLQIRGIKKTDEGTYRCEGRILARGEINFKDIQVIVNVPPTVQARQSIVNATANLGQSVTLVCDADGFPEPTMSWTKDGEPIENEEEDDEKHIFSDDSSELTIRNVDKNDEAEYVCIAENKAGEQDASIHLKVFAK
modifications: rat NCAM fragment amino acid residues 20-308 and cloning artifacts
molecular weight in solution by DLS (oligomeric state) [6]: ~78 kDa

B2: Ig1-2-3mut: Ig1-2-3 mutant containing the substitutions E11A, E16A, and K18A (protein)
chain: RVLQVDIVPSQGAISVGASAFFLCQVAGDAKDKDISWFSPNGEKLSPNQQRISVVWNDDDSSTLTIYNANIDDAGIYKCVVTAEDGTQSEATVNVKIFQKLMFKNAPTPQEFKEGEDAVIVCDVVSSLPPTIIWKHKGRDVILKKDVRFIVLSNNYLQIRGIKKTDEGTYRCEGRILARGEINFKDIQVIVNVPPTVQARQSIVNATANLGQSVTLVCDADGFPEPTMSWTKDGEPIENEEEDDEKHIFSDDSSELTIRNVDKNDEAEYVCIAENKAGEQDASIHLKVFAK
molecular weight in solution by DLS (oligomeric state) [6]: ~34 kDa

B3: Ig3: recombinant Ig3 module of rat NCAM, residues 191-289, produced in P. pastoris (protein)
chain: EAEAYGRILARGEINFKDIQVIVNVPPTVQARQSIVNATANLGQSVTLVCDADGFPEPTMSWTKDGEPIENEEEDDEKHIFSDDSSELTIRNVDKNDEAEYVCI
NCAM-induced neurite outgrowth of PC12-E2 cells grown on NCAM-140-transfected (LBN) fibroblasts [1]: clearly inhibits
NCAM-induced neurite outgrowth of PC12-E2 cells grown on NCAM-140-transfected (LBN) fibroblasts ([1]; listed as Ig3 wt): inhibitory effect
neurite outgrowth of PC12-E2 cells grown on vector-transfected (LVN) fibroblasts ([1]; NCAM-negative fibroblasts): does not affect

B4: Ig3mut1: Ig3 mutant with substitutions R198A, D249G, E287A (E253A) (protein)
chain: EAEAYGRILARGEINFKDIQVIVNVPPTVQAAQSIVNATANLGQSVTLVCDADGFPEPTMSWTKDGEPIENEEEDDEKHIFSGDSSALTIRNVDKNDEAEYVCI
NCAM-induced neurite outgrowth of PC12-E2 cells grown on NCAM-140-transfected (LBN) fibroblasts [1]: inactive
